Assay results from article PMC3961230, “Theoretical and Experimental Studies of New Modified Isoflavonoids as Potential Inhibitors of Topoisomerase I from Plasmodium falciparum” (PLoS ONE, 2014).
Values after ≈ are worked out from the molar mass of the structure shown. Like-named read-outs stand apart in the source and are kept apart here. Each block holds one compound with its values, some of them ahead of it.

How the values were obtained:
[1] = test system: P. falciparum CQ-sensitive (3D7 strain); test: anti-HRPII test, P. falciparum blood parasites, CQ-sensitive 3D7 strain; assay type: cell-based; details: Plasmodium falciparum
Text: (§1) A CQ-resistant and mefloquine-sensitive P. falciparum, clone W2 [27] and a CQ-sensitive strain 3D7, were cultivated as described, in human erythrocytes (A^+), in complete medium (RPMI 1640 supplemented with 10% human sera blood group A^+) and tests followed a protocol slightly modified as follows. Human erythrocytes (A^+) and serum blood group A^+ were kindly donated by Center of Hemotherapy and Hemathology of Minas Gerais (HEMOMINAS - http://www.hemominas.mg.gov.br), under the mutual cooperation term number 18/09.
(§2) The ring-stage parasites sorbitol-synchronized were adjusted for parasitemia and hematocrit, according to the specifications for the test, then distributed in 96-well microtiter plates (Corning, Santa Clara, CA, EUA), previously prepared and containing the diluted compounds in dimethyl sulfoxide (DMSO) (0.02%) aqueous stock solution, in triplicates for each dose. CQ, the standard antimalarial, was tested in parallel each time. The drug activity was determined in relation to parasite cultures in complete medium and no drugs, as described. Parasite growth was measured through the anti-HRPII test in cultures adjusted to 1.5% hematocrit and 0.05% parasitemia, with monoclonal antibodies (MPFM-55A and MPFG-55P) commercially acquired (ICLLAB®, USA) and the TMB chromogen (3,3′,5,5′-Tetramethylbenzidine) from KPL (Gaithersburg, MD, EUA). The reaction was stopped with […] of 1 M sulfuric acid, absorbance read at 450 nm in a spectrophotometer (SpectraMax340PC384, Molecular Devices). Sigmoid dose-response curves were generated with curve-fitting software (Microcal Origin Software 5.0, Inc.), used to determine the 50% inhibitory concentration of the parasite growth (IC50), and activity calculated by comparing growth in drug-exposed cultures and the drug-free control cultures.

[2] = test system: normal kidney glomerular cells from green monkey (BGM); test: Cytotoxicity test (MTT) against BGM cells; assay type: cell-based; details: for MDL50 (µg/mL) Mean ± SD: 24 h
Method: The cytotoxicity tests were performed against normal kidney glomerular cells from green monkey (BGM) as follows. The cells were cultured under a 5% CO2 atmosphere, at 37°C, in 75 cm^2 sterile flasks in RPMI 1640 medium supplemented with 10% heat-inactivated fetal calf serum, and 40 mg/L gentamicin. When confluent, the cell monolayer was washed with culture medium, trypsinized, distributed in flat-bottomed 96-well plates (5×10^3 cells/well), and incubated for 18 h at 37°C for cell adherence. The compounds (20 µL) were added to the cell plates, at various concentrations (1000 to1 µg/mL), incubated for 24 h, then received a solution of MTT [3-(4,5-dimethylthiazol-2-yl)-2,5-diphenyltetrazolium bromide] (5 mg/mL; 20 µL/well), followed by another 3 h incubation, to evaluate mitochondrial viability. The supernatants were removed, DMSO added to each well (100 µL), carefully mixed to solubilize the formazan crystals. The optical density was determined at 570 and 630 nm (background) (SpectraMax340PC384, Molecular Devices). Cell viability was expressed as the percentage of the control absorbance in the untreated cells after subtracting the appropriate background. The minimum lethal dose for 50% of the cells (MLD50) was determined and the selectivity index (SI) calculated as the ratio between cytotoxicity and activity.

[3] = test system: P. falciparum CQ-resistant (W2 clone); test: anti-HRPII test, P. falciparum blood parasites, CQ-resistant W2 clone; assay type: cell-based; details: Plasmodium falciparum
Text: as §1, §2

[4] = test system: P. berghei CQ-sensitive (NK65); test: Antimalarial suppressive test against P. berghei in mice; assay type: in vivo, P. berghei in Swiss mice; details: for % Reduction of parasitemia, 5th day, Exp.1 / Mean Parasitemia ± SD, 5th day, Exp.1 / % Reduction of parasitemia, 7th day, Exp.1 / Mean Parasitemia ± SD, 7th day, Exp.1 / % Reduction of parasitemia, 5th day, Exp.2 / Mean Parasitemia ± SD, 5th day, Exp.2 / % Reduction of parasitemia, 7th day, Exp.2 / Mean Parasitemia ± SD, 7th day, Exp.2: oral, 3 days; for % Reduction of parasitemia, 5th day, Exp.1 / Mean Parasitemia ± SD, 5th day, Exp.1 / % Reduction of parasitemia, 7th day, Exp.1 / Mean Parasitemia ± SD, 7th day, Exp.1: chloroquine 5 mg/kg, LQB223 100 mg/kg; for % Reduction of parasitemia, 5th day, Exp.1 / % Reduction of parasitemia, 5th day, Exp.2: day 5; for % Reduction of parasitemia, 5th day, Exp.1 / % Reduction of parasitemia, 7th day, Exp.1 / % Reduction of parasitemia, 5th day, Exp.2 / % Reduction of parasitemia, 7th day, Exp.2: versus non-treated mice; for Mean Parasitemia ± SD, 5th day, Exp.1 / Mean Parasitemia ± SD, 5th day, Exp.2: day 5 of infection; for % Reduction of parasitemia, 7th day, Exp.1 / % Reduction of parasitemia, 7th day, Exp.2: day 7; for Mean Parasitemia ± SD, 7th day, Exp.1 / Mean Parasitemia ± SD, 7th day, Exp.2: day 7 of infection; for % Reduction of parasitemia, 5th day, Exp.2 / Mean Parasitemia ± SD, 5th day, Exp.2 / % Reduction of parasitemia, 7th day, Exp.2 / Mean Parasitemia ± SD, 7th day, Exp.2: chloroquine 15 mg/kg, LQB223 50 mg/kg
Method: The antimalarial suppressive test in mice, as previously described, was slightly modified. Briefly, Swiss outbred adult female mice, 20±2 g weight, were inoculated with P. berghei CQ-sensitive (NK65) by intraperitoneal route, 1×10^5 freshly infected red blood cells (iRBC) per animal. Two to 24 h later, the mice were randomly distributed to be submitted to drug treatment by oral route, during three consecutive days, once a day; two control groups were used, one non treated and another treated with CQ (either 5 or 15 mg/kg).
The molecule LQB223, freshly diluted with 3% DMSO in water immediately before treatment, was given by gavage, in doses of 100 and 50 mg/kg in 200 µL volume per animal. Blood smears were prepared at days fifth and seventh after parasite inoculation, methanol-fixed, stained with Giemsa, and examined microscopically for parasitemia determination. […] Molecules reducing parasitemia by 30% or more were considered active.

[5] = test system: P. falciparum CQ-resistant (W2 clone); details: ref [9], [10]; cited from earlier work
[6] = test system: P. falciparum CQ-sensitive (3D7 strain); details: ref [9], [10]; cited from earlier work
[7] = CQ-sensitive 3D7, anti-HRPII test, three experiments, ≤10 active, 11–20 partially active, >20 inactive, read-out: IC50 (µg/mL) Mean ± SD, 3D7
[8] = CQ-resistant W2, anti-HRPII test, three experiments, ≤10 active, 11–20 partially active, >20 inactive, read-out: IC50 (µg/mL) Mean ± SD, W2
[9] = BGM monkey kidney cells, MTT, minimal lethal dose for 50% of cells
[10] = W2, CQ-resistant P. falciparum, single curve printed in the picture, read-out: IC50 from dose response curve (Figure 3)

SMILES: O=C1C2=C(C(=O)c3ccccc31)[C@H]1Oc3ccccc3[C@H]1CO2 (relative stereo) [LQB118]
IC50 [1, 7]: 0.16 ± 0.03 µg/mL (≈ 0.526 µM) | toxicity to BGM cells [2]: toxic to BGM cells | MDL50 (µg/mL) Mean ± SD ([2]; green monkey): ≤3.9 µg/mL | IC50 [3, 8]: 0.17 ± 0.1 µg/mL (≈ 0.559 µM)

IC50 [1, 7]: 3.8 ± 1 µg/mL (≈ 8.31 µM) | IC50 [3, 8]: 2.9 ± 2.5 µg/mL (≈ 6.34 µM)
SMILES: Cc1ccc(S(=O)(=O)N2c3ccccc3[C@H]3COC4=C(C(=O)c5ccccc5C4=O)[C@H]32)cc1 (relative stereo) [LQB192]
toxicity to BGM cells ([2]; BGM cells): toxic to BGM cells | MDL50 (µg/mL) Mean ± SD [2, 9]: 68.7 ± 8.4 µg/mL

IC50 [1, 7]: 0.21 ± 0.09 µg/mL (≈ 0.628 µM) | IC50 [3, 10]: 0.23 µg/mL (≈ 0.688 µM) | IC50 [3, 8]: 0.4 ± 0.2 µg/mL (≈ 1.2 µM)
SMILES: COc1ccc2c(c1)O[C@@H]1C3=C(OC[C@H]21)C(=O)c1ccccc1C3=O (relative stereo) [LQB216]
MDL50 (µg/mL) Mean ± SD [2, 9]: 24.2 ± 3 µg/mL

IC50 [1, 7]: 0.25 ± 0.1 µg/mL (≈ 0.69 µM) | IC50 [3, 8]: 0.63 ± 0.8 µg/mL (≈ 1.74 µM)
SMILES: COC(=O)c1ccc2c(c1)[C@H]1COC3=C(C(=O)c4ccccc4C3=O)[C@H]1O2 (relative stereo) [LQB221]
toxicity to BGM cells ([2]; BGM cells): toxic to BGM cells | MDL50 (µg/mL) Mean ± SD [2, 9]: 5.1 µg/mL

IC50 [1, 7]: 3.5 ± 0.4 µg/mL (≈ 9.66 µM) | IC50 [3, 8]: 1.8 ± 1.6 µg/mL (≈ 4.97 µM)
SMILES: COc1cc(C=O)cc2c1O[C@@H]1C3=C(OC[C@H]21)C(=O)c1ccccc1C3=O (relative stereo) [LQB222]
toxicity to BGM cells ([2]; BGM cells): toxic to BGM cells | MDL50 (µg/mL) Mean ± SD [2, 9]: ≤3.9 µg/mL

IC50 [1, 7]: 7.8 ± 3 µg/mL (≈ 20.8 µM) | IC50 [3, 10]: 12.4 µg/mL (≈ 33 µM) | IC50 [3, 8]: 10.2 ± 1.2 µg/mL (≈ 27.2 µM)
SMILES: Cc1ccc(S(=O)(=O)N2c3ccccc3[C@H]3CCc4ccccc4[C@H]32)cc1 (relative stereo) [LQB223]
% Reduction of parasitemia, 5th day, Exp.1 [4]: 67% | Mean Parasitemia ± SD, 5th day, Exp.1 [4]: 0.15±0.2 | % Reduction of parasitemia, 7th day, Exp.1 [4]: 28% | Mean Parasitemia ± SD, 7th day, Exp.1 [4]: 11±3 | % Reduction of parasitemia, 5th day, Exp.2 [4]: 30% | Mean Parasitemia ± SD, 5th day, Exp.2 [4]: 1.2±0.5 | % Reduction of parasitemia, 7th day, Exp.2 [4]: 13% | Mean Parasitemia ± SD, 7th day, Exp.2 [4]: 18.3±1.5 | antimalarial activity in vivo ([4]; mice infected with P. berghei): active in vivo | MDL50 (µg/mL) Mean ± SD [2, 9]: ≥1000 µg/mL

SMILES: CCN(CC)CCCC(C)Nc1ccnc2cc(Cl)ccc12 (stereo not drawn) [Chloroquine, chloroquine, reference compound]
IC50, W2 clone, previous work [5]: 0.07 µg/mL (≈ 0.219 µM) | IC50 ([1]; 3D7, read-out: IC50 (µg/mL) Mean ± SD, 3D7): 0.03 µg/mL (≈ 0.0938 µM) | % Reduction of parasitemia, 5th day, Exp.1 [4]: 100% | Mean Parasitemia ± SD, 5th day, Exp.1 [4]: 0 | % Reduction of parasitemia, 7th day, Exp.1 [4]: 52% | Mean Parasitemia ± SD, 7th day, Exp.1 [4]: 7.3±3 | % Reduction of parasitemia, 5th day, Exp.2 [4]: 100% | Mean Parasitemia ± SD, 5th day, Exp.2 [4]: 0±0.0 | % Reduction of parasitemia, 7th day, Exp.2 [4]: 100% | Mean Parasitemia ± SD, 7th day, Exp.2 [4]: 0±0.0 | IC50 ([3]; W2, read-out: IC50 (µg/mL) Mean ± SD, W2): 0.138 µg/mL (≈ 0.431 µM) | IC50, 3D7 strain, previous work [6]: 0.0035 µg/mL (≈ 0.0109 µM)
